Legend:
Format in all cases: in vivo
Plutella xylostella = experiment: Leaf dip method (cabbage) against Plutella xylostella (Example C); details: Plutella xylostella, foliar, 72 h, read-out: Observed Efficacy (%)
Source text: (§1) In which E represents the expected percentage of inhibition of the pests for the combination of two insecticides or one insecticide and one fungicide at defined doses (for example equal to x and y respectively), x is the percentage of inhibition observed for the pest/disease by the compound (1) at a given dose (equal to x), y is the percentage of inhibition observed for the pest/disease by the compound (2) or (3) at a defined dose (equal to y). When the percentage of inhibition observed for the combination is greater than E, there is a synergistic effect.
The leaf dip method was used, wherein the required quantity of the compound or respective compound combinations were weighed and dissolved in a test solution prepared in tubes. The tubes were put on a vortex at 2000 rpm for 90 min for proper mixing and then diluted with a 0.01% Triton-X solution to the desired test concentration. Cabbage leaves were dipped into the solution for 10 seconds, shade dried for 20 min and then transferred to single cells of bioassay trays. A single second instar larva was released into each cell and the tray was covered with a lid. The bio-assay trays were kept under laboratory conditions at a temperature of 25° C. and relative humidity of 70%. Observations on dead, moribund and live larvae were recorded 72 h after the release. Percent mortality was calculated by combining dead and moribund larvae and comparing the result with the one of the untreated control. The results are shown for compound of formula (I-1) in Table C.

Helicoverpa armigera = experiment: Leaf dip method (tomato leaves), Bacillus thuringiensis mixture against Helicoverpa armigera (Example D); details: 0.1 ppm; 72 h
Source text: as §1
The leaf dip method was used, wherein the required quantity of the compounds were weighed and dissolved in a test solution prepared in tubes. The tubes were put on a vortex at 2000 rpm for 90 min for proper mixing and then, for the single compounds, diluted with a 0.01% Triton-X solution, for the combinations, diluted with a 0.01% Triton-X solution containing formulated Bt, to get the desired test concentrations. Tomato leaves were dipped in the solution for 10 seconds, shade dried for 20 min and then transferred to single cells of the bioassay trays. […] Observations on dead, moribund and live larvae were recorded at 72 h after the release. Percent mortality was calculated by combining dead and moribund larvae and comparing the result to the one of the untreated control. […]

Alternaria solani = experiment: Preventive glasshouse test against Alternaria solani in tomato (Example G); details: preventive spray
Source text: as §1
The single compounds or respective compound combinations were dissolved in 2% dimethyl sulfoxide/acetone and then mixed with water containing emulsifier to a calibrated spray volume of 50 mL. The test solutions were poured into spray bottles for further applications.
To test the preventive activity, healthy young tomato plants, raised in the greenhouse, were sprayed with the active compound preparation at the stated application rates inside the spray cabinets using hollow cone nozzles. One day after treatment, the plants were inoculated with a spore suspension containing 0.24×10^6 Alternaria solani inoculum and 2% Malt. The inoculated plants were then kept in a greenhouse chamber at a temperature of 22-24° C. and 90-95% relative humidity for disease expression.
A visual assessment of the performance of the single compounds or compound combinations was carried out by rating the disease severity (0-100% scale) on treated plants 3, 7, 10 and 15 days after application. Efficacy (% control) of the single compounds and mixtures was calculated by comparing the disease rating in the treatment with the one of the untreated control. The compounds were also assessed for their plant compatibility by recording symptoms like necrosis, chlorosis and stunting. The results have been described for the compound of formula (I-1) in Table G.

Erysiphe cichoracearum = experiment: Preventive glasshouse test against Erysiphe cichoracearum in cucumber (Example K); details: 500 ppm, preventive spray
Source text: as §1
The single compounds or the respective compound combinations were dissolved in 2% dimethyl sulfoxide/acetone and then mixed with water containing emulsifier to a calibrated spray volume of 50 mL. The test solutions were poured into spray bottles for further applications. […]
A visual assessment of the performance of the compounds and the respective compound combinations was carried out by rating the disease severity (0-100% scale) on treated plants 3, 7, 10 and 15 days after application. Efficacy (% control) of the single compounds or compound combinations was calculated by comparing the disease rating in the treatment with the one of the untreated control. The compounds were also assessed for their plant compatibility by recording symptoms like necrosis, chlorosis and stunting. […]

For `Cc1cc(Cl)cc(C(=O)NC(C)(C)C)c1NC(=O)c1cc(OC2CS(=O)(=O)C2)nn1-c1ncccc1Cl` [Compound (I-1), N-(2-(tert-butylcarbamoyl)-4-chloro-6-methylphenyl)-1-(3-chloropyridin-2-yl)-3-((1,1-dioxidothietan-3-yl)oxy)-1H-pyrazole-5-carboxamide], the pest or weed control at 0.0025 ppm (Plutella xylostella; 0.0025 ppm) was 0%, the pest or weed control at 0.004 ppm (Plutella xylostella; 0.004 ppm) was 0% and the pest or weed control at 0.005 ppm (Plutella xylostella; 0.005 ppm) was 0%. The pest or weed control at 0.02 ppm (Plutella xylostella; 0.02 ppm) was 12.5%, the pest or weed control at 0.03 ppm (Plutella xylostella; 0.03 ppm) was 12.5% and the pest or weed control at 0.05 ppm (Plutella xylostella; 0.05 ppm) was 12.5%. The pest or weed control at 0.1 ppm (Plutella xylostella; 0.1 ppm) was 12.5%, the pest or weed control at 0.5 ppm (Plutella xylostella; 0.5 ppm) was 25% and the “Observed Efficacy (%)” value (Helicoverpa armigera) was 12.5%. For the same molecule, the “Observed Efficacy (%)” value (Alternaria solani; 100 ppm) was 14%, the “Observed Efficacy (%)” value (Alternaria solani; 500 ppm) was 16% and the “Observed Efficacy (%)” value (Erysiphe cichoracearum) was 28%.

Reference: US20230276803A1, “A PESTICIDALLY ACTIVE MIXTURE COMPRISING THIETANYLOXY COMPOUND, OXIDES OR SALTS THEREOF” (PI INDUSTRIES LTD., priority 2020, published 2023)
